Assay [1] has as its target T1, P2X4 (Homo sapiens, UniProt Q99571).
T1 sequence (Q99571 1-388): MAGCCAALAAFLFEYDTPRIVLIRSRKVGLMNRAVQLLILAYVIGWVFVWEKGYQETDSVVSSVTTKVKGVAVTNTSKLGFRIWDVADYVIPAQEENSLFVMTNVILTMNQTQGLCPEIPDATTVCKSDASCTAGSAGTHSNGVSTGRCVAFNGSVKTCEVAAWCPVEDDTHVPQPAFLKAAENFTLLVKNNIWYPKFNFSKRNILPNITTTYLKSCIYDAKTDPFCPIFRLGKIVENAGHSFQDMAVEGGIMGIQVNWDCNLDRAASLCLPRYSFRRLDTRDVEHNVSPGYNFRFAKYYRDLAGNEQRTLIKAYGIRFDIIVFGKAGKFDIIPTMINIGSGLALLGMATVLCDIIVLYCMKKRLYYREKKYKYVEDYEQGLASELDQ
The assay can be described thus: Assay A: human P2X4 receptor cell line, FLIPR calcium assay (Fluo-8, agonist Bz-ATP at EC80). The assay is classed as cell-based. On the set-up: host or cells: HEK 293 (recombinant, constitutively expressing; with mitochondrial photina in Assay B). To be noted: HEK human P2X4 cells, Fluo-8 FLIPR; for IC50: Bz-ATP at EC80, average values; for Emax: percentage of maximal inhibition, read-out: human P2X4 Assay A avg Efficacy. The protocol: A fluorescent imaging plate reader (FLEX/FLIPR station; Molecular Devices) was used to monitor intracellular calcium levels using the calcium-chelating dye Fluo-8 (Molecular Probes). […] Cells expressing purinergic receptors human P2X4 (HEK human P2X4: PerkinElmer, Product No.: AX-015-PCF) were plated at a density of 20,000 cells/well in poly-D-lysine-coated 384-well plates approximately 20 hours before beginning the assay. On the day of the assay, the medium was removed and 30 μl of dye buffer (Hank's balanced salt solution, 10 mM HEPES, 1.8 mM CaCl2), 1 mM MgCl2, 2 mM probenecid, 5 mM D-glucose monohydrate, 5 μM Fluo-8, pH=7.4) was added for 30 min at […] and 5% CO2. The antagonist in probenecid buffer (Hank's balanced salt solution, 10 mM HEPES, 1.8 mM CaCl2, 1 mM MgCl2, 2 mM probenecid, 5 mM D-glucose monohydrate, pH=7.4) was added in a volume of 10 μl and allowed to incubate for 30 min at room temperature. The final assay DMSO concentration is 0.5%. The agonist, Bz-ATP, is added in a volume of 10 μl at a concentration representing the EC80 value. The fluorescence was measured for an interval of 120 sec at 2 sec intervals and analyzed based on the increase in peak relative fluorescence units (RFU) compared to the basal fluorescence. Peak fluorescence was used to determine the response to agonist obtained at each concentration of antagonist by the following equation:
% Response=100*(RFU(drug)−RFU(control))/(RFU(DMSO)−RFU(control))
The compounds were tested in triplicates per plate and mean values were plotted in Excel XLFit to determine IC50 values, percentage of maximal inhibition and the Hill coefficients.

Assay [2] addresses T1, P2X4. In words: Assay B: human P2X4 receptor cell line, mitochondrial photina luminescence (agonist Bz-ATP at EC50). Details: host or cells: HEK 293 (recombinant, constitutively expressing; with mitochondrial photina in Assay B). The assay is classed as cell-based. To be noted: HEK human P2X4 cell line, photina luminescence, agonist Bz-ATP at EC50, average; for Emax: read-out: human P2X4 Assay B avg Efficacy. The procedure, abridged:
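Bz-ATP at its EC50 activates human P2X4 stably expressed in a cell line that also carries the calcium-sensitive photoprotein mitochondrial photina (coelenterazine cofactor). Light emitted on calcium influx is measured straight away in a luminometer. Reduced luminescence indicates antagonism.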

As usually defined, the IC50 is the midpoint of a concentration-inhibition curve.

For the compound `NS(=O)(=O)c1cc(NC(=O)Cc2ccccc2Cl)ccc1Oc1cc(C(F)(F)F)c(Cl)cn1` [Example 284, 2-(2-Chlorophenyl)-N-(4-{[5-chloro-4-(trifluoromethyl)pyridin-2-yl]oxy}-3-sulfamoyl-phenyl)acetamide], in assay [1], the IC50 stood at 10900 nM and the Emax was 82%. Take `[2H]c1c([2H])c([2H])c(Oc2ccc(NC(=O)Cc3ccccc3Cl)cc2S(N)(=O)=O)c([2H])c1[2H]` [Example 261, 2-(2-Chlorophenyl)-N-{4-[(^2H5)phenyloxy]-3-sulfamoylphenyl}acetamide]: the Emax in assay [1] stood at 89%.

In the case of `NS(=O)(=O)c1cc(NC(=O)Cc2ccc(F)cc2Cl)ccc1OCC1CCOCC1` [Example 282, 2-(2-Chloro-4-fluorophenyl)-N-[3-sulfamoyl-4-(tetrahydro-2H-pyran-4-ylmethoxy)phenyl]acetamide], the Emax in assay [1] was found to be 82%.

In the case of `CC1(C)CC(COc2ccc(NC(=O)Cc3ccccc3Cl)cc2S(N)(=O)=O)CCO1` (stereo not drawn) [Example 265, 2-(2-Chlorophenyl)-N-{4-[(2,2-dimethyltetrahydro-2H-pyran-4-yl)methoxy]-3-sulfamoylphenyl}acetamide], in assay [1], the IC50 is 416 nM and the Emax came out at 74%. In the same order, the values of `NS(=O)(=O)c1cc(NC(=O)Cc2c(F)cc(F)cc2Cl)ccc1Oc1cccc(Cl)c1` [Example 259, 2-(2-Chloro-4,6-difluorophenyl)-N-[4-(3-chlorophenoxy)-3-sulfamoylphenyl]acetamide] are 145 nM and 76%. For the compound `NS(=O)(=O)c1cc(NC(=O)Cc2ccc(O)cc2)ccc1Oc1cccc(Cl)c1` [Example 256, N-[4-(3-Chlorophenoxy)-3-sulfamoylphenyl]-2-(4-hydroxyphenyl)acetamide], in assay [1], the IC50 turned out to be 19 nM and the Emax was determined as 75%. For `NS(=O)(=O)c1cc(NC(=O)Cc2ccccc2Cl)ccc1Oc1ccc(C(F)(F)F)nc1` [Example 283, 2-(2-Chlorophenyl)-N-(3-sulfamoyl-4-{[6-(trifluoromethyl)pyridin-3-yl]oxy}phenyl)-acetamide], in assay [1], the IC50 is 8050 nM and the Emax amounted to 62%. In the same order, the values of `NS(=O)(=O)c1cc(NC(=O)Cc2ccccc2Cl)ccc1OCC1(Cl)CCOCC1` [Example 267, 2-(2-Chlorophenyl)-N-{4-[(4-chlorotetrahydro-2H-pyran-4-yl)methoxy]-3-sulfamoylphenyl}acetamide] are 4440 nM and 76%.

Turning to `NS(=O)(=O)c1cc(NC(=O)Cc2ccccc2F)cc(F)c1Oc1cccc(Cl)c1` [Example 289, N-[4-(3-Chlorophenoxy)-3-fluoro-5-sulfamoylphenyl]-2-(2-fluorophenyl)acetamide], in assay [1], the half-inhibitory concentration (IC50) is > 25000 nM and the Emax came out at 34%.

`NS(=O)(=O)c1cc(NC(=O)Cc2ccccc2F)cnc1Oc1cccc(Cl)c1` [Example 293, N-[6-(3-Chlorophenoxy)-5-sulfamoylpyridin-3-yl]-2-(2-fluorophenyl)acetamide]: in assay [1], the half-inhibitory concentration (IC50) stood at 72 nM and the Emax turned out to be 67%. For `NS(=O)(=O)c1cc(NC(=O)Cc2ccccc2Cl)ccc1OCC1(O)CCCCC1` [Example 288, 2-(2-Chlorophenyl)-N-{4-[(1-hydroxycyclohexyl)methoxy]-3-sulfamoylphenyl}-acetamide], in assay [1], the 50% inhibitory concentration (IC50) stood at 988 nM and the Emax worked out at 57%. In the case of `COc1cc(C)cc(Cl)c1CC(=O)Nc1ccc(Oc2cccc(Cl)c2)c(S(N)(=O)=O)c1` [Example 257, 2-(2-Chloro-6-methoxy-4-methylphenyl)-N-[4-(3-chlorophenoxy)-3-sulfamoylphenyl]acetamide], in assay [1], the half-inhibitory concentration (IC50) was determined as 355 nM and the Emax is 85%.

On to `NS(=O)(=O)c1cc(NC(=O)Cc2cc(F)ccc2Cl)cc(F)c1Oc1cccc(Cl)c1` [Example 292, 2-(2-Chloro-5-fluorophenyl)-N-[4-(3-chlorophenoxy)-3-fluoro-5-sulfamoyl-phenyl]acetamide], for which, in assay [1], the IC50 stood at 15100 nM and the Emax is 69%. With `NS(=O)(=O)c1cc(NC(=O)Cc2ccccc2Cl)ccc1OCC1COCCO1` (stereo not drawn) [Example 268, 2-(2-Chlorophenyl)-N-[4-(1,4-dioxan-2-ylmethoxy)-3-sulfamoylphenyl]acetamide], the Emax in assay [1] was found to be 77%. On to `[2H]c1c([2H])c([2H])c(Oc2ccc(NC(=O)Cc3ccccc3Cl)cc2S(N)(=O)=O)c(Cl)c1[2H]` [Example 263, 2-(2-Chlorophenyl)-N-(4-{[2-chloro(^2H4)phenyl]oxy}-3-sulfamoylphenyl)acetamide], for which, in assay [1], the Emax stood at 95%.

On to `CC(C(=O)Nc1ccc(Oc2cccc(Cl)c2)c(S(N)(=O)=O)c1)c1c(Cl)cccc1Cl` (stereo not drawn) [Example 260, N-[4-(3-Chlorophenoxy)-3-sulfamoylphenyl]-2-(2,6-dichlorophenyl)propanamide], for which, in assay [1], the 50% inhibitory concentration (IC50) is 2490 nM and the Emax worked out at 90%. For `NS(=O)(=O)c1cc(NC(=O)Cc2ccccc2Cl)ccc1Oc1cnc(Cl)c(F)c1` [Example 286, N-{4-[(6-Chloro-5-fluoropyridin-3-yl)oxy]-3-sulfamoylphenyl}-2-(2-chlorophenyl)-acetamide], in assay [1], the IC50 amounted to 237 nM and the Emax was 55%.

Turning to `NS(=O)(=O)c1cc(NC(=O)Cc2ccccc2Cl)ccc1OCC1(O)CCC(F)(F)CC1` [Example 287, 2-(2-Chlorophenyl)-N-{4-[(4,4-difluoro-1-hydroxycyclohexyl)methoxy]-3-sulfamoyl-phenyl}acetamide], in assay [1], the IC50 worked out at 187 nM and the Emax was 58%. On the same counts, the results for `[2H]c1c([2H])c(Oc2ccc(NC(=O)Cc3ccccc3Cl)cc2S(N)(=O)=O)c([2H])c([2H])c1Cl` [Example 262, 2-(2-Chlorophenyl)-N-(4-{[4-chloro(^2H4)phenyl]oxy}-3-sulfamoylphenyl)acetamide] are 42 nM and 54%. Turning to `NS(=O)(=O)c1cc(NC(=O)Cc2ccccc2C(F)(F)F)cnc1Oc1cccc(Cl)c1` [Example 294, N-[6-(3-Chlorophenoxy)-5-sulfamoylpyridin-3-yl]-2-[2-(trifluoromethyl)phenyl]-acetamide], in assay [1], the IC50 is 107 nM and the Emax amounted to 84%. Turning to `NS(=O)(=O)c1cc(NC(=O)Cc2ccccc2C(F)F)cc(F)c1Oc1cccc(Cl)c1` [Example 290, N-[4-(3-Chlorophenoxy)-3-fluoro-5-sulfamoylphenyl]-2-[2-(difluoromethyl)-phenyl]acetamide], in assay [1], the IC50 amounted to 16000 nM and the Emax turned out to be 66%.

For `C[C@@H](C(=O)Nc1ccc(Oc2cccc(Cl)c2)c(S(N)(=O)=O)c1)c1ccccc1` [Example 195, (2R)—N-[4-(3-Chlorophenoxy)-3-sulfamoylphenyl]-2-phenylpropanamide], the Emax in assay [2] turned out to be 64%. Still for that read-out and setting: in the case of `C[C@H](C(=O)Nc1ccc(Oc2cccc(Cl)c2)c(S(N)(=O)=O)c1)c1ccccc1` [Example 194, (2S)—N-[4-(3-chlorophenoxy)-3-sulfamoylphenyl]-2-phenylpropanamide] it was 65%.

In the case of `NS(=O)(=O)c1cc(NC(=O)Cc2ccccc2Cl)ccc1OCc1ncccn1` [Example 154, 2-(2-Chlorophenyl)-N-[4-(pyrimidin-2-ylmethoxy)-3-sulfamoylphenyl]acetamide], in assay [2], the half-maximal inhibitory concentration (IC50) is 252 nM and the Emax amounted to 77%.

Values taken from patent US20180338980A1, “AROMATIC SULFONAMIDE DERIVATIVES” (BAYER PHARMA AKTIENGESELLSCHAFT, priority 2015, published 2018).
